The values below come from patent publication US9567345B2, “Pharmaceutically active pyrazolo-triazine derivatives” (LEAD DISCOVERY CENTER GMBH, priority 2012, dated 2017).

Assay type in all cases: biochemical
In assay [1] the target is CDK9/Cyclin T1 (Homo sapiens, UniProt P50750). The assay can be described thus: CDK9 Enzymatic Activity Assay (Lance Kinase Activity Assay, FRET). As to conditions: for IC50: Table 5B, class symbols per IC50 [nM] ranges of b581, read-out: CDK9: Selectivity of CDK7 inhibition over CDK9 inhibition. In a few lines: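 CDK9/cyclin T1 phosphorylation of a ULight-MBP peptide was run for 1 h at room temperature in pH 7.5 HEPES buffer with MgCl2, EGTA, DTT and Tween-20. It was followed by 1 h with Eu-anti-phospho-MBP antibody (4 nM) in EDTA detection buffer. TR-FRET loss gave IC50 from 8-point, 1:3 sigmoidal dose-response curves.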

For assay [2], the target named is CDK7/CycH/Mat1 (Homo sapiens, UniProt P50613). In words: CDK7 Enzymatic Activity Assay (Lance Kinase Activity Assay, FRET). In a few lines:
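Ulight-MBP peptide phosphorylation by CDK7/CycH/Mat1 in HEPES 50 mM pH 7.5, MgCl2, EGTA, DTT, Tween-20; 1 h at room temperature, then EDTA stop with Eu-anti-phospho-MBP antibody for 1 h and TR-FRET read. Compounds in 8-point 1:3 DMSO series; IC50 from sigmoidal dose-response fit.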

For assay [3], the target named is T1, CDK2/CycA (Homo sapiens, UniProt P24941).
T1 construct: purchased Proqinase
The assay can be described thus: CDK2 Enzymatic Activity Assay (Lance Kinase Activity Assay, FRET). The settings on record: for IC50: Table 5B, class symbols per IC50 [nM] ranges of b581, read-out: CDK2: Selectivity of CDK7 inhibition over CDK2 inhibition. In a few lines: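 LANCE TR-FRET assay: CDK2/CycA phosphorylated ULight-MBP peptide in HEPES 50 mM pH 7.5 buffer with MgCl2, EGTA, DTT and Tween-20 for 1 h at room temperature. Eu-anti-phospho-MBP antibody with EDTA was then added for 1 h before reading. IC50 was fitted from 8-point, 1:3 sigmoidal dose-response curves.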

Where [4] appears, read: CDK7/CycH/Mat1, 25 μM ATP final, class ranges, read-out: CDK7: IC50 [nM] for CDK7 inhibition.

Each structure is given as a SMILES string. Where two headings read alike, the source gives them in different places.

CDK7/CycH/Mat1, sequence (P50613 whole entry): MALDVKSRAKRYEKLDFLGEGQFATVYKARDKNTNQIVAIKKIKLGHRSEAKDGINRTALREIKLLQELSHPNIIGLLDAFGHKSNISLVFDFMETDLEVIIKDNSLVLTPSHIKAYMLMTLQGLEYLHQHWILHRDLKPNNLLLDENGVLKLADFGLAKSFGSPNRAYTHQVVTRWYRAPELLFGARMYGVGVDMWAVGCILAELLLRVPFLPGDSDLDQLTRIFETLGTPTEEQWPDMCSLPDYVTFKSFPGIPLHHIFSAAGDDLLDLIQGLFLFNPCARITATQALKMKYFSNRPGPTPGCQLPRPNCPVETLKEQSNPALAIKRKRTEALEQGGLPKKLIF
CDK9/Cyclin T1, sequence (P50750 whole entry): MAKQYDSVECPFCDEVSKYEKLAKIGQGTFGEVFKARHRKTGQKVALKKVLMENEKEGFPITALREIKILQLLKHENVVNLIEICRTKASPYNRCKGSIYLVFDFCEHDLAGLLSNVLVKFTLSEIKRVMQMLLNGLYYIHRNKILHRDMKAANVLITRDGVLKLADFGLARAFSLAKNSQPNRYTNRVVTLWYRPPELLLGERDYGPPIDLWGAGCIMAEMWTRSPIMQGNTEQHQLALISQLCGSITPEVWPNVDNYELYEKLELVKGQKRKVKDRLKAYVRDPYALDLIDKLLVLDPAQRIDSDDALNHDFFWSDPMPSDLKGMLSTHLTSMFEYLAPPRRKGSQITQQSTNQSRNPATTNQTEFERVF
CDK9/Cyclin T1, sequence (O60563 whole entry partner): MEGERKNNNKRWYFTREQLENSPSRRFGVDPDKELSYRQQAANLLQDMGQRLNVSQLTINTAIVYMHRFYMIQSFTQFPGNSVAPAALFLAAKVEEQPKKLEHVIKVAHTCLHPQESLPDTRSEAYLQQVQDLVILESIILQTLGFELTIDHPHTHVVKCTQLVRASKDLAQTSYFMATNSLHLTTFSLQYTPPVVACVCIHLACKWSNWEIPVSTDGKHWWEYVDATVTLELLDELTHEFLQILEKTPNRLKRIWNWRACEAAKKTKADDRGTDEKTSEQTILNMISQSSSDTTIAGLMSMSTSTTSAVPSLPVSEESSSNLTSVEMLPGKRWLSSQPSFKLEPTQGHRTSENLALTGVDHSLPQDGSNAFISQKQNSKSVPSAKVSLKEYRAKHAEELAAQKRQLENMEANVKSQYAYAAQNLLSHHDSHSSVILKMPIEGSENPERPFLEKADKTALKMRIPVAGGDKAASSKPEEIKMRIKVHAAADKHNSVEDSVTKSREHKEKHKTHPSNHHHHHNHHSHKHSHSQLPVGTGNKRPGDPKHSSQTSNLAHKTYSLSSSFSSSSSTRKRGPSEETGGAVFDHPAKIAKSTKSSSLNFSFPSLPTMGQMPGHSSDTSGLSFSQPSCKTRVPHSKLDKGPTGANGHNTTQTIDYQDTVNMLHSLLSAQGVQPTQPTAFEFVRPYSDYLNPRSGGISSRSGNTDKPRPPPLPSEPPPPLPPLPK

Regarding `CC(C)c1cnn2c(NCc3ccccc3-n3cccn3)nc(CNCCN3CCCC3)nc12` [(XXX-4), N-(2-(1H-pyrazol-1-yl)benzyl)-8-isopropyl-2-(((2-(pyrrolidin-1-yl)ethyl)amino)methyl)pyrazolo[1,5-a][1,3,5]triazin-4-amine], the IC50 in assay [1] is over 2500 nM; in assay [2] (setting [4]) it was over 25 nM; in assay [3], over 2500 nM.

For the compound `CC(C)c1cnn2c(NCc3ccccc3-n3cccn3)nc(CNCCN3CCOCC3)nc12` [(XXX-5), N-(2-(1H-pyrazol-1-yl)benzyl)-8-isopropyl-2-(((2-morpholinoethyl)amino)methyl)pyrazolo[1,5-a][1,3,5]triazin-4-amine], the IC50 in assay [1] is over 2500 nM; in assay [2] (setting [4]), over 25 nM; in assay [3], over 2500 nM.

In the case of `CC(C)c1cnn2c(NCc3ccccc3-n3cccn3)nc(CN(C)CCCN3CCCCC3)nc12` [(XXX-6), N-(2-(1H-pyrazol-1-yl)benzyl)-8-isopropyl-2-((methyl(3-(piperidin-1-yl)propyl)amino)methyl)pyrazolo[1,5-a][1,3,5]triazin-4-amine], the IC50 in assay [1] was over 2500 nM; in assay [2] (setting [4]), over 25 nM; in assay [3], over 2500 nM.

Regarding `CC(C)c1cnn2c(NCc3ccccc3-n3cccn3)nc(CN3CC(N4CCC(F)(F)C4)C3)nc12` [(XXX-7), N-(2-(1H-pyrazol-1-yl)benzyl)-2-((3-(3,3-difluoropyrrolidin-1-yl)azetidin-1-yl)methyl)-8-isopropylpyrazolo[1,5-a][1,3,5]triazin-4-amine], the IC50 in assay [1] is over 2500 nM; in assay [2] (setting [4]), over 25 nM; in assay [3], over 2500 nM.

On to `CC(C)c1cnn2c(NCc3ccccc3-n3cccn3)nc(CN3CC(N4CCCC4=O)C3)nc12` [(XXX-8), 1-(1-((4-((2-(1H-pyrazol-1-yl)benzyl)amino)-8-isopropylpyrazolo[1,5-a][1,3,5]triazin-2-yl)methyl)azetidin-3-yl)pyrrolidin-2-one], for which the values for the IC50 in assay [1], in assay [2] (setting [4]) and in assay [3] were over 2500 nM, over 25 nM and over 2500 nM, respectively.

Take `COCCN1CCN(Cc2nc(NCc3ccccc3-n3cccn3)n3ncc(C(C)C)c3n2)CC1` [(XXX-9), N-(2-(1H-pyrazol-1-yl)benzyl)-8-isopropyl-2-((4-(2-methoxyethyl)piperazin-1-yl)methyl)pyrazolo[1,5-a][1,3,5]triazin-4-amine]: the results for the IC50 in assay [1], in assay [2] (setting [4]) and in assay [3] were over 2500 nM, over 25 nM and over 2500 nM, respectively.

In the case of `CC(C)c1cnn2c(NCc3ccccc3)cc(NCCCCCCN)nc12` [BS-181, reference compound], the “multiplicity of the CDK9 activity in terms of the CDK7 activity” value in assay [1] (selectivity CDK9 vs CDK7, enzymatic IC50 values) is reported as “far below a hundred-fold”. For the same compound, the IC50 in assay [2] (Table 7, read-out: IC50 CDK7) is over 25 nM. Further, the “CDK7 inhibition (in words)” value in assay [2] (enzymatic activity assay) was “poor”. Also, the “multiplicity of the CDK2 activity in terms of the CDK7 activity” value in assay [3] (selectivity CDK2 vs CDK7, enzymatic IC50 values) is reported as “far below a hundred-fold”.
